Results taken from patent US9598349B2, “Quinone based nitric oxide donating compounds for ophthalmic use” (NICOX SCIENCE IRELAND, priority 2013, dated 2017).
Read-outs that look alike come from different tables or passages of the source.

Key:
[1] = tested on: lipidic peroxidation of membrane lipids in rat hepatic microsomes; assay: In vitro antioxidant activity (TBARS test); assay type: biochemical; conditions: read-out: Antioxidant activity IC50 μM (CL 95%)
Protocol: The antioxidant properties of compound (1) (example 1), its precursors (3-methyl-3-(2,4,5-trimethyl-3,6-dioxocyclohexa-1,4-dien-1-yl)butanoic acid, described in Example 1 Step 2 (Intermediate 2) and reference antioxidant compounds were assessed after NADPH-induced lipidic peroxidation of membrane lipids in rat hepatic microsomes using the detection of 2-thiobarbituric acid reactive substances (TBARS) by visible spectroscopy.
Hepatic microsomal membranes from male Wistar rats (200-250 g) were prepared by differential centrifugation (8000 g, 20 min; 120000 g, 1 h) in a HEPES/sucrose buffer (10 mM, 250 mM, pH 7.4) and stored at −80° C. Incubation was performed at 37° C. in a Tris-HCl/KCl (100 mM/150 mM, pH 7.4) containing microsomal membranes (2 mg prot/mL), sodium ascorbate (100 μM), and DMSO solutions of the tested compounds.
Lipid peroxidation was initiated by adding ADP-FeCl3 and NADPH (Method A) or 2.5 μM FeSO4 (Method B) (as described by Boschi D. et al., J. Med. Chem. 2006, 49:2886-2897). Aliquots were taken from the incubation mixture at 5, 15, and 30 min and treated with trichloroacetic acid (TCA) 10% w/v.
Lipid peroxidation was assessed by spectrophotometric (543 nm) determination of the TBARS consisting mainly of malondialdehyde (MDA). TBARS concentrations (expressed in nmol/mg protein) were obtained by interpolation with a MDA standard curve. The antioxidant activity of tested compounds was evaluated as the percent inhibition of TBARS production with respect to control samples, using the values obtained after 30 min of incubation. IC50 values were calculated by nonlinear regression analysis.

[2] = tested on: hypertonic saline-induced IOP increase; assay: IOP lowering activity in hypertonic saline-induced IOP increase in rabbits (Example 11); assay type: in vivo, New Zealand White rabbits
Protocol: The Intraocular pressure (IOP) lowering activity of compound (1) (Example 1) was assessed in an animal model of elevated IOP.
(§1) Adults male New Zealand White rabbits weighting 1.8-2.0 Kg were used in the experiments.
(§2) Animals were anesthetized using 20 mg/ml/kg of sodium pentobarbital. The increase in IOP was induced by the injection of 0.1 ml of hypertonic saline solution (5%) into the vitreous bilaterally (Krauss et al., 2011, Orihashi et al., 2005).
IOP was measured using a Tono-Pen XL prior to hypertonic saline injection (basal) and at 30, 60, 90, 120, 240 and 360 min thereafter. Vehicle (5% cremophor-EL; 0.3% DMSO; 0.2 mg/ml Benzalkonium chloride (bac) in PBS pH 6.0,) or compound of the invention were instilled as eye drops immediately after hypertonic saline injection. Eyes were randomly assigned to different treatment groups. Vehicle or compounds of the invention were directly instilled into the conjunctiva pocket at the desired doses. One drop of 0.2% oxybuprocaine hydrochloride (Novesine, Sandoz) diluted 1:1 with saline was instilled in each eye immediately before each set of pressure measurements.
Results are reported in Table 2 in which the ocular hypotensive activity of compound (1) is expressed as mean average of IOP measurements at 60 and 120 minutes following topical administration.

[3] = tested on: hypertonic saline-induced IOP increase; assay: IOP lowering activity in hypertonic saline-induced IOP increase in rabbits, two concentrations (Example 16); assay type: in vivo, New Zealand White rabbits; conditions: for IOP change (mmHg): versus vehicle and versus basal IOP
Protocol: The present study evaluated the intraocular pressure lowering effect of single applications of two different concentrations (1% and 0.3%) of compound (1) in rabbits with experimental increase in IOP.
as §1
The transient increase in IOP was induced by the injection of 0.1 ml of hypertonic saline solution (5%) into the vitreous bilaterally (Krauss et al., 2011, Orihashi et al., 2005).
IOP was measured using a Tono-Pen XL prior to hypertonic saline injection (basal) and at 30, 60, 120 and 240 min thereafter. Vehicle (5% cremophor-EL; 0.3% DMSO; 0.2 mg/ml Benzalkonium chloride in PBS pH 6.0) or compound was instilled as eye drops immediately after hypertonic saline injection. Eyes were randomly assigned to different treatment groups. Vehicle and compound were directly instilled into the conjunctiva pocket at the desired doses. One drop of 0.4% oxybuprocaine hydrochloride (Novesine, Sandoz) was instilled in each eye immediately before each set of pressure measurements.
Results are reported in Table 3 and they are expressed as IOP change (at 60 and 120 minutes following topical administration) versus vehicle and versus IOP at basal before hypertonic saline injection.

[4] = tested on: hypertonic saline-induced IOP increase; assay: IOP lowering activity in hypertonic saline-induced IOP increase in rabbits, versus ISMN (Example 17); assay type: in vivo, New Zealand White rabbits; conditions: for IOP change (mmHg): dose 1%, versus vehicle and versus basal IOP
Protocol: The present study evaluated the intraocular pressure lowering effect of single application of compound (15) (Example 12) and of ISMN (isosorbide-5-mononitrate) used as reference compound, in an animal model of elevated IOP.
as §1, §2
IOP was measured using a Tono-Pen XL prior to hypertonic saline injection (basal) and at 30, 60, 90, 120, 240 and 360 min thereafter. Vehicle (5% cremophor-EL; 0.3% DMSO; 0.2 mg/ml Benzalkonium chloride in PBS pH 6.0,) or tested compound was instilled as eye drops immediately after hypertonic saline injection. Eyes were randomly assigned to different treatment groups. Vehicle or compounds were directly instilled into the conjunctiva pocket at the desired doses. One drop of 0.2% oxybuprocaine hydrochloride (Novesine, Sandoz) diluted 1:1 with saline was instilled in each eye immediately before each set of pressure measurements.
Results are reported in Table 4 and they are expressed as IOP change (at 30 and 60 minutes following topical administration) versus vehicle and versus IOP at basal before hypertonic saline injection.

[5] = tested on: lipidic peroxidation of membrane lipids in rat hepatic microsomes; conditions: Method B; values from Chegaev et al. (footnotes b, c); read-out: Antioxidant activity IC50 μM (CL 95%); cited from earlier work
[6] = Method A: lipid peroxidation induced by ADP-FeCl3 and NADPH, inhibition of TBARS production after 30 min incubation at 37° C.

In the case of `O=C(O)/C=C/c1ccc(O)c(O)c1` [Caffeic acid, reference compound], the IC50 ([1]; Method B: lipid peroxidation induced by FeSO4 and ascorbic acid, inhibition of TBARS production after 30 min incubation at 37° C.) is reported as 33 µM.

For `CC1=C(C)C(=O)C(C(C)(C)CC(=O)OCCCCO[N+](=O)[O-])=C(C)C1=O` [Compound (1), 4-(nitrooxy)butyl 3-methyl-3-(2,4,5-trimethyl-3,6-dioxocyclohexa-1,4-dienyl)butanoate], the “IOP (mmHg)” value ([2]; 60 minutes following topical administration (eye drops)) was 29 ± 7.8 mmHg, the “IOP (mmHg)” value ([2]; 120 minutes following topical administration (eye drops)) was 18.9 ± 4.1 mmHg and the “IOP change (mmHg)” value ([3]; dose 0.3%, 60 minutes) was −5.5 ± 3.1 mmHg. For the same compound, the “IOP change (mmHg)” value ([3]; dose 0.3%, 120 minutes) was −5.7 ± 2.1 mmHg, the “IOP change (mmHg)” value ([3]; dose 1%, 60 minutes) was −9.1 ± 3.4 mmHg and the “IOP change (mmHg)” value ([3]; dose 1%, 120 minutes) was −9.5 ± 2.2 mmHg. The “IOP reduction (in words)” value ([3]; single application, both doses (1% and 0.3%)) was “significant IOP reduction” and the IC50 [1, 6] was 28 µM.

With `CC1=C(C)C(=O)C(C(C)(C)CC(=O)OCCCC[C@@H](CO[N+](=O)[O-])O[N+](=O)[O-])=C(C)C1=O` [Compound (15), (S)-5,6-bis(nitrooxy)hexyl 3-methyl-3-(2,4,5-trimethyl-3,6-dioxocyclohexa-1,4-dienyl)butanoate] the “IOP change (mmHg)” value ([4]; 30 minutes) was −6.5 ± 2.6 mmHg, the “IOP change (mmHg)” value ([4]; 60 minutes) was −4.9 ± 2.4 mmHg and the “IOP reduction compared to ISMN (in words)” value ([4]; single application, 1%) was “significantly higher IOP reduction as compared to ISMN treated group”.

In the case of `CC1=NN(c2ccccc2)C(=O)C1` [Edavarone], the IC50 [5] is given as 17 µM.

For `COc1cc(/C=C/C(=O)O)ccc1O` [Ferulic acid, reference compound], the IC50 ([1]; Method B, footnote a: tested at 1 mM concentration) was 50.5 ± 0.4 µM.

In the case of `O=[N+]([O-])O[C@@H]1CO[C@H]2[C@@H]1OC[C@@H]2O` [ISMN, isosorbide-5-mononitrate, reference compound], the “IOP change (mmHg)” value ([4]; 30 minutes) is reported as −2.6 ± 3.5 mmHg and the “IOP change (mmHg)” value ([4]; 60 minutes) is reported as −0.7 ± 2.9 mmHg.

In the case of `CC1=C(C)C(=O)C(C(C)(C)CC(=O)O)=C(C)C1=O` [Intermediate 2, 3-methyl-3-(2,4,5-trimethyl-3,6-dioxocyclohexa-1,4-dien-1-yl)butanoic acid], the IC50 [1, 6] is reported as 157 µM.

For `COc1ccc2[nH]cc(CCNC(C)=O)c2c1` [Melatonin], the IC50 [5] is given as 476 µM.
